Reference: US4737519A, “Substituted naphthalenes, indoles, benzofurans, and benzothiophenes as lipoxygenase inhibitors” (The Upjohn Company, priority 1986, dated 1988)

Assays:
trachealis muscle = assay: isometric tension of the trachealis muscle in dogs; type: in vivo, mongrel dogs; conditions: 1.0 mg in the CTA
Protocol: (§1) Isometric tension measurements of the trachealis muscle were recorded by suturing a rigid, plastic bar to the (15) cartilaginous rings of the cut edges of the trachea, and connecting one side to a fixed restraint and the contralateral side to a force displacement transducer (Grass, Model FT 03C). An initial tension of 25-30 g/cm of trachea was applied to the muscle, and it was allowed to stabilize for 45 min. An initial zero tension point was determined before agonists were injected into the CTA, and the zero was readjusted after agonist injections.
When drug activity was assessed with arachidonic acid induced secretion, the animals were pretreated with indomethacin (Indo) (5 mg/kg) for at least 30 minutes. Before any drugs were given, however, the appropriate controls for arachidonate and indomethacin were run. The standard procedure for this was to determine the effect of (1) arachidonate alone, (2) indomethacin alone, and (3) indomethacin/arachidonate combination on normal baseline secretion. Once these control values were acquired, the drug was given. An experimental drug given in the presence of the indomethacin/arachidonate combination helps to characterize that portion of the response due to lipoxygenase products. […] Hillocks were counted for 2-3 minutes immediately after the arachidonate was given.

human airways = conditions: in vitro; cited from earlier work
mucous secretion = assay: canine tracheal mucous secretion (hillock count); type: in vivo, mongrel dogs; conditions: 1.0 mg in the CTA
Protocol: Mongrel dogs (weight 18-35 kg) were anesthetized with a mixture of chloralose (100 mg/kg) and urethane (500 mg/kg) via intravenous injection. The animals were secured to a surgery table, ventral side up, and the neck and inner right hind limb were shaved. A ventral midline incision was made in the neck using a Bovie CSVII electrosurgical unit, starting from the papillae (interramal) to the clavicle thus exposing the trachea. An endotracheal tube was secured into the lower trachea. The animals were then connected via the endotracheal tube to a Harvard respirator (Model 607A) that delivered room air at a constant tidal volume and frequency. Two polyethylene catheters were connected to the endotracheal tube, and one was connected to a medical gas analyzer (Beckman, Model LB-2) that continuously measured the carbon dioxide (CO2) content of the expired air for determination of end tidal CO2. The other was connected to a pressure transducer (Statham, Model PMI 131TC+2.5-350) for the measurement of airway press ure.
A second incision made in the inner right hind limb to expose the femoral artery and vein was made for the catheterization of these large vessels. A polyethylene catheter was tied into the artery and connected to a pressure transducer (Statham, Model P231D) for the measurement of blood pressure. This catheter also allowed for samples of arterial blood to be collected for measurements of blood gas tension using a blood gas analyser (Corning, Model 175). Another polyethylene catheter was tied into the femoral vein which was used for injecting additional anesthetic and paralyzing drugs. Gallamine triethiodide (20-40 mg) was used to paralyze the respiratory muscles and a single injection of sodium bicarbonate 7.5% (0.5 mg/kg) in conjunction with a continuous i.v. drip of 5% dextrose in 0.9% saline helped to maintain fluid balance. All physiological measurements were recorded and monitored on a polygraph (Grass instruments, Model 7D). Once the femoral cutdown was completed, surgery on the neck region resumed. The carotid artery was exposed and the "knuckle" (a portion of the carotid which bisects to supply blood flow to the trachea and neck muscles) was located. A small polyethylene catheter was then inserted into the muscular branch of the cranial thyroid artery (CTA). This allowed for close arterial injection of experimental agents. The strap muscles were removed and the mucosal surface of the trachea exposed by cutting along the anterior midline of the upper two-thirds of the extrathoracic trachea and pulling the cut edges widely apart. The exposed mucosa was checked for proper canulation by blanching and appropriate adjustments of the canula into the CTA were made until blanching was achieved.
as §1
To visualize secretions coming from the submucosal gland duct openings of the trachea, powdered tantalum, an inert metal (2-5 microns in size) was sprayed on the trachea until it formed a uniform layer over the mucosal surface. The tantalum itself did nothing to normal secretion, but prevented the normal ciliary dispersion of secretions from the gland duct openings; these secretions, therefore, caused elevations ("hillocks") in the tantalum layer. The number of hillocks formed in a 1.2 cm^2 field, 1-2 cm from the larynx, were counted and their images were recorded with a video camera (Hitachi CCTV, Model HV-17TU) mounted on a dissecting microscrope (Zeiss Ompi-1) with a beam splitter. […]

mucus release = conditions: in vivo in the cat; cited from earlier work
canine tracheas = conditions: in vivo; cited from earlier work
tracheal mucus velocity = conditions: given prior to antigen challenge, patients with a history of bronchial asthma; cited from earlier work

SMILES	effect on the trachealis muscle (trachealis muscle)	release of mucus from human airways (human airways)	effect on mucus secretion (mucous secretion)	stimulating mucus release (mucus release)	release of mucus from canine tracheas (canine tracheas)	reversing the tracheal mucus velocity (tracheal mucus velocity)
CCCCC/C=C\C/C=C\C/C=C\C/C=C\CCCC(=O)O [arachidonate, arachidonic acid]	slight stimulation followed by relaxation of the trachealis muscle	release mucus from human airway	stimulates mucus secretion			
CCCCC/C=C\C\C=C/C=C/C=C/[C@@H](SC[C@H](NC(=O)CC[C@H](N)C(=O)O)C(=O)NCC(=O)O)[C@@H](O)CCCC(=O)O [LTC4, leukotriene C4]		increase the release of mucus		effective in stimulating mucus release in vivo in the cat	increase the release of mucus	
CCCCC/C=C\C\C=C/C=C/C=C/[C@@H](SC[C@H](N)C(=O)NCC(=O)O)[C@@H](O)CCCC(=O)O [LTD4, leukotriene D4]		increase the release of mucus			increase the release of mucus	
CCCc1c(OCC(O)COc2ccc3c(=O)cc(C(=O)O)oc3c2CCC)ccc(C(C)=O)c1O (stereo not drawn) [FPL 55712]						effective in reversing the tracheal mucus velocity
